Assay results as given in patent US20090022684A1, “Methods for hematopoietic stimulation” (priority 2006, published 2009).
Like-named read-outs stand apart in the source and are kept apart here. Positions of bridges follow the written chain, without caps; N, C: chain ends. Residues, ends and D or L forms follow the SMILES beside them.

Experiment: Phase I clinical trial: plasma pharmacokinetics of the peptide
Format: in vivo, human
Conditions: for Dose Proportionality Day 1 AUC(0-tlast)/Dose / Dose Proportionality Day 1 Cmax/Dose / Dose Proportionality Day 7 AUC(0-τ)/Dose / Dose Proportionality Day 7 Cmax/Dose / Tmax / Cmax / half-life / AUC(0-t) / AUC / AUC(0-inf) / Vd/F / CL/F: plasma; for Tmax / Cmax / half-life / AUC(0-t) / AUC / AUC(0-inf) / Vd/F / CL/F: human, sc; for AUC(0-t): read-out: AUC(0-tlast); for AUC: read-out: AUC(0-τ); for Vd/F: read-out: Vz/F
Protocol: A Phase I, single-center, randomized double blind, placebo-controlled, multiple-escalating-dose study in healthy older volunteers was carried out for the peptide [Leu^27]cyclo(Glu^22-Lys^2 1)-hPTH-(1-31)-NH2 (SEQ ID NO: 4). Subjects were healthy males and females (non-reproductive potential), aged 40 to 65 years. […] […] For each dosage level, 2 subjects (I male and I female) received placebo and 6 subjects (3 males and 3 females) received the peptide daily.
Pharmacokinetics. Plasma concentrations of the peptide were analyzed using the WinNonlin 4.0 Noncompartmental module (Pharsight Inc., Mountainview, Calif.) or equivalent. The following pharmacokinetic parameters were computed from the peptide plasma concentration-time data (See FIGS. 4 and 5): • AUC(0-tlast): The area under the plasma concentration versus time curve, from time 0 to the last measurable concentration, as calculated by the linear trapezoidal method (Day 1). • AUC(0-τ): The area under the plasma concentration versus time curve, from time 0 to the last measurable concentration, as calculated by the linear trapezoidal method (Day 7). • AUC(0-∞) or AUCinf: The area under the plasma concentration versus time curve from time 0 to infinity. AUC(0-∞) is calculated as the sum of the AUC(0-tlast) plus the ratio of the last measurable plasma concentration to the elimination rate constant (Clast/kel), where Clast is the predicted concentration at the time of the last measurable concentration, as determined by linear regression, and kel is the apparent first-order elimination rate constant (Day 1). • AUC/AUCinf: The ratio of AUC(0-tlast) to AUC(0-∞). • Cmax: Maximum measured plasma concentration over the time span specified. • Tmax: Time of the maximum measured plasma concentration. If the maximum value occurs at more than one time point, Tmax is defined as the first time point with this value. • kel: Apparent first-order terminal elimination rate constant calculated from a semi-log plot of the plasma concentration versus time curve. This parameter was calculated by linear least squares regression analysis using the maximum number of points in the terminal log-linear phase (e.g. three or more non-zero plasma concentrations). • t1/2: The apparent first-order terminal elimination half-life was calculated as 0.693/kel. • Vz/F: Apparent volume of distribution of a drug following subcutaneous administration, calculated as Dose/( AUC(0-∞)·kel), (Day 1). • CL/F: Apparent total body clearance of a drug following […], calculated as Dose/AUC(0-∞), (Day 1).
Accumulation Index: Calculated as AUC(0-τ) Day 7/AUC(0-tlast) Day 1.

[1] = both sexes, 10 ug, Day 1, 10 μg s.c., geometric mean (CV %)
[2] = both sexes, 10 ug, Day 7, 10 μg s.c. daily, geometric mean (CV %)
[3] = both sexes, 20 ug, Day 1, 20 μg s.c., geometric mean (CV %)
[4] = both sexes, 20 ug, Day 7, 20 μg s.c. daily, geometric mean (CV %)
[5] = both sexes, 40 ug, Day 1, 40 μg s.c., geometric mean (CV %)
[6] = both sexes, 40 ug, Day 7, 40 μg s.c. daily, geometric mean (CV %)
[7] = both sexes, 60 ug, Day 1, 60 μg s.c., arithmetic mean (CV %)
[8] = both sexes, 60 ug, Day 1, 60 μg s.c., geometric mean (CV %)
[9] = both sexes, 60 ug, Day 7, 60 μg s.c. daily, geometric mean (CV %)
[10] = both sexes, 80 ug, Day 1, 80 μg s.c., arithmetic mean (CV %)
[11] = both sexes, 80 ug, Day 1, 80 μg s.c., geometric mean (CV %)
[12] = both sexes, 80 ug, Day 7, 80 μg s.c. daily, geometric mean (CV %)
[13] = both sexes, 20 ug, Day 1, 20 μg s.c., n = 1
[14] = both sexes, 40 ug, Day 1, 40 μg s.c., n = 1

CC[C@H](C)[C@H](NC(=O)[C@H](CCC(=O)O)NC(=O)[C@H](CO)NC(=O)[C@@H](NC(=O)[C@@H](N)CO)C(C)C)C(=O)N[C@@H](CCC(N)=O)C(=O)N[C@@H](CC(C)C)C(=O)N[C@@H](CCSC)C(=O)N[C@@H](Cc1c[nH]cn1)C(=O)N[C@@H](CC(N)=O)C(=O)N[C@@H](CC(C)C)C(=O)NCC(=O)N[C@@H](CCCCN)C(=O)N[C@@H](Cc1c[nH]cn1)C(=O)N[C@@H](CC(C)C)C(=O)N[C@@H](CC(N)=O)C(=O)N[C@@H](CO)C(=O)N[C@@H](CCSC)C(=O)N[C@@H](CCC(=O)O)C(=O)N[C@@H](CCCN=C(N)N)C(=O)N[C@H](C(=O)N[C@H]1CCC(=O)NCCCC[C@@H](C(=O)N[C@@H](CC(C)C)C(=O)N[C@@H](CC(C)C)C(=O)N[C@@H](CCC(N)=O)C(=O)N[C@@H](CC(=O)O)C(=O)N[C@H](C(N)=O)C(C)C)NC(=O)[C@H](CCCN=C(N)N)NC(=O)[C@H](CC(C)C)NC(=O)[C@H](Cc2c[nH]c3ccccc23)NC1=O)C(C)C [[Leu^27]cyclo(Glu^22-Lys^26)-hPTH-(1-31)-NH2] (H-SVSEIQLMHNLGKHLNSMERVEWLRKLLQDV-NH2; lactam 22-26)
accumulation (20 μg, 60 μg and 80 μg dose levels): no observed accumulation
Dose Proportionality Day 1 AUC(0-tlast)/Dose (Dose Level 10 μg): 1.08
Dose Proportionality Day 1 Cmax/Dose (Dose Level 10 μg): 2.35
Dose Proportionality Day 7 AUC(0-τ)/Dose (Dose Level 10 μg): 2.06
Dose Proportionality Day 7 Cmax/Dose (Dose Level 10 μg): 3.13
Dose Proportionality Day 1 AUC(0-tlast)/Dose (Dose Level 20 μg): 1.10
Dose Proportionality Day 1 Cmax/Dose (Dose Level 20 μg): 1.66
Dose Proportionality Day 7 AUC(0-τ)/Dose (Dose Level 20 μg): 1.14
Dose Proportionality Day 7 Cmax/Dose (Dose Level 20 μg): 1.95
Dose Proportionality Day 1 AUC(0-tlast)/Dose (Dose Level 30 μg): 3.30
Dose Proportionality Day 1 Cmax/Dose (Dose Level 30 μg): 2.92
Dose Proportionality Day 7 AUC(0-τ)/Dose (Dose Level 30 μg): 3.58
Dose Proportionality Day 7 Cmax/Dose (Dose Level 30 μg): 3.18
Dose Proportionality Day 1 AUC(0-tlast)/Dose (Dose Level 40 μg): 1.89
Dose Proportionality Day 1 Cmax/Dose (Dose Level 40 μg): 2.68
Dose Proportionality Day 7 AUC(0-τ)/Dose (Dose Level 40 μg): 2.68
Dose Proportionality Day 7 Cmax/Dose (Dose Level 40 μg): 3.19
Dose Proportionality Day 1 AUC(0-tlast)/Dose (Dose Level 60 μg): 1.61
Dose Proportionality Day 1 Cmax/Dose (Dose Level 60 μg): 1.85
Dose Proportionality Day 7 AUC(0-τ)/Dose (Dose Level 60 μg): 1.96
Dose Proportionality Day 7 Cmax/Dose (Dose Level 60 μg): 2.21
Tmax (both sexes, 10 ug, Day 1, 10 μg s.c., arithmetic mean (CV %)): 15 min
Cmax [1]: 0.0235 ng/mL
Tmax (both sexes, 10 ug, Day 7, 10 μg s.c. daily, arithmetic mean (CV %)): 15 min
Cmax [2]: 0.0313 ng/mL
Tmax (both sexes, 20 ug, Day 1, 20 μg s.c., arithmetic mean (CV %)): 20 min
Cmax [3]: 0.0332 ng/mL
Tmax (both sexes, 20 ug, Day 7, 20 μg s.c. daily, arithmetic mean (CV %)): 25 min
Cmax [4]: 0.0391 ng/mL
Tmax (both sexes, 40 ug, Day 1, 40 μg s.c., arithmetic mean (CV %)): 20.3 min
Cmax [5]: 0.107 ng/mL
Tmax (both sexes, 40 ug, Day 7, 40 μg s.c. daily, arithmetic mean (CV %)): 15 min
Cmax [6]: 0.128 ng/mL
Tmax [7]: 17.6 min
Cmax [8]: 0.111 ng/mL
Tmax (both sexes, 60 ug, Day 7, 60 μg s.c. daily, arithmetic mean (CV %)): 15 min
Cmax [9]: 0.133 ng/mL
Tmax [10]: 24 min
Cmax [11]: 0.234 ng/mL
Tmax (both sexes, 80 ug, Day 7, 80 μg s.c. daily, arithmetic mean (CV %)): 15.7 min
Cmax [12]: 0.254 ng/mL
half-life (both sexes, from 20 μg dose to 80 μg dose, s.c., read-out: mean t1/2 across dose groups): 32.8 to 46.7 min
AUC(0-t) [1]: 0.0108 ng·h/mL
AUC [2]: 0.0206 ng·h/mL
AUC(0-t) [3]: 0.022 ng·h/mL
AUC(0-inf) [13]: 0.092 ng·h/mL
Vd/F [13]: 171 L
half-life (both sexes, 20 ug, Day 1, 20 μg s.c., n = 1, read-out: t½ (converted)): 32.8 min
AUC [4]: 0.0228 ng·h/mL
AUC(0-t) [5]: 0.0755 ng·h/mL
AUC(0-inf) [14]: 0.134 ng·h/mL
Vd/F [14]: 247 L
half-life (both sexes, 40 ug, Day 1, 40 μg s.c., n = 1, read-out: t½ (converted)): 34.6 min
AUC [6]: 0.107 ng·h/mL
CL/F [7]: 7770 mL/min
Vd/F [7]: 477 L
AUC(0-inf) [8]: 0.139 ng·h/mL
AUC(0-t) [8]: 0.0965 ng·h/mL
half-life (both sexes, 60 ug, Day 1, 60 μg s.c., mean (CV %), read-out: t½ (converted)): 41.8 min
AUC [9]: 0.118 ng·h/mL
CL/F [10]: 5230 mL/min
Vd/F [10]: 361 L
AUC(0-inf) [11]: 0.257 ng·h/mL
AUC(0-t) [11]: 0.264 ng·h/mL
half-life (both sexes, 80 ug, Day 1, 80 μg s.c., mean (CV %), read-out: t½ (converted)): 46.7 min
AUC [12]: 0.286 ng·h/mL
CL/F (20 ug, Day 1, 20 μg s.c., n = 1): 3620 mL/min
CL/F (40 ug, Day 1, 40 μg s.c., n = 1): 4970 mL/min
dose proportionality of AUC(0-∞) (Day 1), AUC(0-τ) (Day 7), Cmax (Day 1) and Cmax (Day 7) (increasing dose from 10 μg to 80 μg): dose proportional
pharmacokinetic behavior, comparison AUC(0-τ) Day 7/AUC(0-∞) Day 1 (once-daily subcutaneous administration for 7 days of 60 μg and 80 μg doses): linear
